We go through 4 compounds from patent US5100875A, “Novel peptides having plateler aggregation inhibitory activity” (Institut National de la Sante et de la Recherche Medicale …, priority 1986, dated 1992).

In one experiment the test system is platelets. Nature of the experiment: Inhibition of platelet aggregation (ADP-induced, washed platelets with fibrinogen). Format: cell-based. The following applies: isolated human platelets, ADP 5×10^-6 M, fibrinogen 1.1×10^-6 M. As for the experimental part:
The effect of the synthetic peptides on platelet aggregation was studied on platelets isolated as previously described for the study of the binding to fibrinogen. The stimulation of the platelets was also brought about by 5×10^-6 M ADP and the assay was carried out in the presence of 1.1×10^-6 M fibrinogen and of […] CaCl2.

Experiment [1] has as its target T1, platelet fibrinogen receptor (Homo sapiens, UniProt P05106+P08514).
T1 construct: endogenous in cells; host or cells: washed human blood platelets, stimulated with ADP
Nature of the experiment: Inhibition of platelet-fibrinogen binding (125I-fibrinogen, ADP-stimulated washed platelets). Particulars: 4×10^7 human platelets, 125I-fibrinogen 0.1×10^-6 M, ADP 5×10^-6 M, CaCl2 0.5 mM, 15 mn incubation. As to the method:
The platelets were isolated from 60 ml of human blood collected in the anticoagulant buffer ACD in a ratio of 1 volume of ACD to 6 volumes of blood.
The blood is then centrifuged for 20 mn at a 1,000 r/mn (JOUAN E 96 centrifuge) at room temperature.
The PRP (plasma rich in platelets) is decanted and treated with 0.1 μM PGE1, then centrifuged for 15 mn at 2,000 r/mn.
The platelets obtained in the pellet are then taken up in 1 ml of Tyrode buffer-albumin, pH 7.2, prepared with the following composition:
The platelets are washed on a column of Sepharose CL 2B using Tyrode buffer-albumin, pH 7.2, then the platelets are recovered and diluted to a concentration of 2×10^8 platelets/ml.
The assays are carried out on 4×10^7 platelets in the presence of CaCl2 (0.5 mM), ^125 I-fibrinogen 0.1×10^-6 M) and different concentrations of peptide, and the stimulation of the platelets is induced by ADP (5×10^-6 M). After incubation for 15 mn and deposition on a 15% saccharose solution the ^125 I-fibrinogen-plateletcomplex is isolated by centrifugation at 12,000 r/mn for 2 mn.
This table also presents the sequence of the peptides.

Residues, ends and D or L forms follow the SMILES beside them.

T1 sequence (P08514 32-887 limits assumed): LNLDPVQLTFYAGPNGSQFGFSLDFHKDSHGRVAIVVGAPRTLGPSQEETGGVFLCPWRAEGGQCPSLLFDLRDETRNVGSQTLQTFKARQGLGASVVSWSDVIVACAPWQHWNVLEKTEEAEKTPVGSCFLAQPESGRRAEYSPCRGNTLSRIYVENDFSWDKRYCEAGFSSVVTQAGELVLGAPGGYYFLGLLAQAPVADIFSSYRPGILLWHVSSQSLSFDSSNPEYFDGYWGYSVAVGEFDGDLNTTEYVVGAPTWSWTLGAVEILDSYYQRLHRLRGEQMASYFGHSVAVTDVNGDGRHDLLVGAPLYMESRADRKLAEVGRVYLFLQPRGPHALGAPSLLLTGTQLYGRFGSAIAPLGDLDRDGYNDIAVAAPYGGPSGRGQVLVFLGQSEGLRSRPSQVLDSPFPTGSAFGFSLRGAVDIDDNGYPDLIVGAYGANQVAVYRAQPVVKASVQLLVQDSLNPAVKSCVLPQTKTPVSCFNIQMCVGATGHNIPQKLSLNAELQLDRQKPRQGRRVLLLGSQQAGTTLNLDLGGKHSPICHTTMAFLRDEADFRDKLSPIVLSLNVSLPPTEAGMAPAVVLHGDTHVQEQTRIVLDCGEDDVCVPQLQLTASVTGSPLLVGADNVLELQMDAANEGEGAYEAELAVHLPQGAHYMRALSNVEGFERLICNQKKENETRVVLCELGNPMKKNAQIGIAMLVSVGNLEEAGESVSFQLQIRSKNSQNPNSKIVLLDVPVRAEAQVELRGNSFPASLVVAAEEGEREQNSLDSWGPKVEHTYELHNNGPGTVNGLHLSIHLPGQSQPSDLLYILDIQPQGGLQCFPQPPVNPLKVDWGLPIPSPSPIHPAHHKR
T1 sequence (P08514 891-1039 partner limits assumed): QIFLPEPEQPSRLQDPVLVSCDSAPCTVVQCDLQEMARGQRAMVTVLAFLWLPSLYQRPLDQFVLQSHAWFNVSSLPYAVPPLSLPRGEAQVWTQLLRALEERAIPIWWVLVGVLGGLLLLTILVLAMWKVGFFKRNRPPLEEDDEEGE
T1 sequence (P05106 27-788): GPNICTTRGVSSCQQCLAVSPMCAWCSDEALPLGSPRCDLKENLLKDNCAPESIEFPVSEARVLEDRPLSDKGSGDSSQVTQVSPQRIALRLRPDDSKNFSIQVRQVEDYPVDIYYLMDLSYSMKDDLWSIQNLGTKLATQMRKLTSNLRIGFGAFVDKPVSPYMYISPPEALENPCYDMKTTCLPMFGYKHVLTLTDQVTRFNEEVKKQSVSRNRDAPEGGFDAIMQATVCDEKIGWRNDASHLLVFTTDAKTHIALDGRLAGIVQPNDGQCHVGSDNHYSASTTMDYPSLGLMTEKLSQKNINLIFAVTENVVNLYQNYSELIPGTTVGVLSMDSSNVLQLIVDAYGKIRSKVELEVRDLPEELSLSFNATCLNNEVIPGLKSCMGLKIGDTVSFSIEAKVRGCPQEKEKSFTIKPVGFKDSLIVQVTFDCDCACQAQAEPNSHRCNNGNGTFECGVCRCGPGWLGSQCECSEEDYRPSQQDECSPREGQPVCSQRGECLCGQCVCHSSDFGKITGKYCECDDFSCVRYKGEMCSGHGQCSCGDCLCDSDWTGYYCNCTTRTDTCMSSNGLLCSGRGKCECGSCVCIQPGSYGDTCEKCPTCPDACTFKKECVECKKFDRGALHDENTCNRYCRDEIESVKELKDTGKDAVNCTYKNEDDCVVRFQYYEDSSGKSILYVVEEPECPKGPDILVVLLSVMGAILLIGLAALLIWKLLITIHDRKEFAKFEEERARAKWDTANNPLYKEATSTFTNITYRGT

One may read the IC50 as the concentration that inhibits the measured activity by half. Higher therefore signals weaker potency in that assay. Turning to `N=C(N)NCCC[C@H](N)C(=O)NCC(=O)N[C@@H](CC(=O)O)C(=O)N[C@@H](Cc1ccccc1)C(=O)O` [RGDF, H-Arg-Gly-Asp-Phe-OH] (H-RGDF-OH), the IC50 is 15 µM with platelets and 7 µM in experiment [1].

Turning to `N=C(N)NCCC[C@H](N)C(=O)NCC(=O)N[C@@H](CC(=O)O)C(=O)N[C@@H](Cc1c[nH]c2ccccc12)C(=O)O` [RGDW, H-Arg-Gly-Asp-Trp-OH] (H-RGDW-OH), the IC50 in the experiment on platelets amounted to 10 µM.

In the case of `NC(N)=NCCC[C@H](N)C(=O)NCC(=O)N[C@@H](CC(=O)O)C(=O)N[C@@H](Cc1c[nH]c2ccccc12)C(=O)O` [RGDW, H-Arg-Gly-Asp-Trp-OH] (H-RGDW-OH), the IC50 in experiment [1] came to 3.6 µM.

“H-LRGDF-OH [LRGDF, H-Leu-Arg-Gly-Asp-Phe-OH]”: the IC50 (with platelets; in experiment [1]) was 20 µM each time.
